Patent publication US4749568A, “Rubradirin treatment of methicillin-resistant staph” (The Upjohn Company, priority 1987, dated 1988)

Experiments:
[1] = tested on: S. aureus UC6685; test: ED50 determination, mice infected intraperitoneally with S. aureus UC6685; format: in vivo, Staphylococcus aureus (infected mice, Charles Fisher #1); settings: dosed 1 and 5 hr post infection, 10080 min
Method: (§1) Effective Dose50 (ED50) determinations were performed using standard methods. All mice (Charles Fisher #1, 20 g) were given sufficient S. aureus intraperitoneally (IP) to kill 90 to 100% of untreated mice. At least five dosage levels of antibiotics were employed per each ED50 determination. The antibiotic was administered subcutaneous (SQ) or orally at 1 and 5 hr post infection. The mice were monitored for one week with deaths being noted daily. The ED50 values were calculated by probit analysis.
(§2) ^1 The dose of drug in mg/kg of body weight required to protect 50% o
(§3) the infected animals. Drug was dosed one and five hours post infection
(§4) ^2 Paldimycin was dosed SQ.

[2] = tested on: S. aureus UC9213; test: ED50 determination, mice infected intraperitoneally with S. aureus UC9213; format: in vivo, Staphylococcus aureus (infected mice, Charles Fisher #1); settings: dosed 1 and 5 hr post infection, 10080 min
Method: as §1, §2, §3, §4

[3] = tested on: S. aureus UC9271; test: ED50 determination, mice infected intraperitoneally with S. aureus UC9271; format: in vivo, Staphylococcus aureus (infected mice, Charles Fisher #1); settings: dosed 1 and 5 hr post infection, 10080 min
Method: as §1, §2, §3, §4

[4] = tested on: Staphylococcus aureus; test: Susceptibility test of patient isolate; format: cell-based; settings: isolate from patient, Examples 1 to 3
Method: It is known to those skilled in the art how to determine which Staphylococcus (aureus or epidermidis) infections are rubradirin-sensitiveand methicillin-resistant by use of standarad susceptibility tests. See, "Dilution Susceptibility Test: agar and macro-broth dilution procedures; Manual of Clinical Microbiology, Third Edition, American Society of Microbiology, 1980, Washington, D.C., p 453-458".
(§5) A 70 kg person has a fever of 103° F. and has symptoms of bacterial pneumonia infection. Standard laboratory tests isolate an organism which is identified as Staphylococcus aureus. […] The patient is given 1000 mg of rubradirin three times daily by mouth. The temperature over a short period goes to 98.6° F. and the clinical symptoms of pneumonia disappear.
(§6) A 60 kg patient has an infection on their arm following a severe burn. They have a 101° F. fever. Standard laboratory tests isolate an organism which is identified as Staphylococcus aureus. […] The patient is treated with a cream containing 3% rubradirin.
A 85 kg person has baceterial endocarditis with a fever of 104° F. Standard laboratory tests isolate an organism which is identified as Staphylococcus aureus. […] The patient is treated with an IV infusion of rubradirin (4.5 mg/ml) at a rate of 60 ml/hr for a dose of 76 mg/kg/day.

[5] = tested on: Staphylococcus aureus; test: Treatment of patient with bacterial pneumonia (Example 1); format: in vivo, Staphylococcus aureus (human patient); settings: 70 kg male, 1000 mg three times daily by mouth
Method: as §5

[6] = tested on: Staphylococcus aureus; test: Topical treatment of patient with infected burn (Example 2); format: in vivo, Staphylococcus aureus (human patient); settings: 60 kg female, cream containing 3% rubradirin
Method: as §6

[7] = tested on: two clinical strains of S. aureus; settings: cited from earlier work
[8] = tested on: Multidrug-resistant staphylococci; settings: Orthopedic Clinics of North America 15, 417 (1984); cited from earlier work

COc1ccc2c(O)c(NC(=O)c3cc(O[C@@H]4C[C@](C)([N+](=O)[O-])[C@@H](OC)[C@@H](C)O4)c(O)c(C(=O)O[C@H]4[C@H](O)C(=O)[C@]5(C)CNC6=C(O5)C(=O)c5c(cc(C)c(O)c5C(=O)/C(C)=C\[C@@H]4C)C6=O)n3)c(=O)oc2c1 [Rubradirin, rubradirin]
ED50 ([1]; SQ): 4.7 mg/kg | ED50 ([1]; oral): 11.1 mg/kg | ED50 ([2]; SQ): 4.7 mg/kg | ED50 ([2]; oral): 1.6 mg/kg | ED50 ([3]; SQ): 23.1 mg/kg | ED50 ([3]; oral): 141 mg/kg | Susceptibility test results of the isolate [4]: susceptible | clinical symptoms of pneumonia [5]: disappear | temperature ([5]; fever of 103° F. before): 98.6 ° F. | inflammation [6]: less inflammation | wound infection and healing [6]: the wound is not infected and appears to be healing much better | temperature ([6]; after 3 days, 101° F. fever before): goes to normal | in vitro activity ([7]; two clinical strains resistant to several antibiotics): had in vitro activity

COc1cccc(OC)c1C(=O)N[C@@H]1C(=O)N2[C@@H]1SC(C)(C)[C@@H]2C(=O)O [methicillin]
Susceptibility test results of the isolate [4]: resistant | methicillin sensitivity of the strains ([7]; strains originally tested by Bhuyan et al, later study): sensitive

CN[C@H](CC(C)C)C(=O)N[C@H]1C(=O)N[C@@H](CC(N)=O)C(=O)N[C@H]2C(=O)N[C@H]3C(=O)N[C@H](C(=O)N[C@H](C(=O)O)c4cc(O)cc(O)c4-c4cc3ccc4O)[C@H](O)c3ccc(c(Cl)c3)Oc3cc2cc(c3O[C@@H]2O[C@H](CO)[C@@H](O)[C@H](O)[C@H]2O[C@H]2C[C@](C)(N)[C@H](O)[C@H](C)O2)Oc2ccc(cc2Cl)[C@H]1O [vancomycin]
susceptibility [8]: retained their susceptibility

Paldimycin
ED50 ([1]; SQ): 8.1 mg/kg | ED50 ([2]; SQ): 12.7 mg/kg | ED50 ([3]; SQ): 20.5 mg/kg
